Reference: patent US10093627B2, “Tetrahydroquinoline derivatives and their use as Epac inhibitors” (Institut National de la Sante et de la Recherche Medicale …, priority 2012, dated 2018)

Key:
Epac1 [1] = target: T1, Epac1 (Homo sapiens, UniProt O95398); assay: In vitro GEF activity (initial velocity of GDP exchange on Rap1A) of Epac1; assay type: biochemical; details: for EC50: Epac1 GEF activity toward Rap1, Epac1 activated by 20 μM 007, mean of n=4 to 9 independent determinations; for Dose-response curve of inhibition of 007-activated Epac1 GEF activity, comparison between compounds: Epac1 activated by 20 μM 007, FIG. 5; for Antagonism of cAMP-activated Epac1 GEF activity: compound 30 μM, 300 μM cAMP, FIG. 6C
T1 construct: Recombinant human Epac1 (residues 149-881), deleted of its Dishevelled, Egl-10, and Pleckstrin (DEP) domain; made in house
T1 sequence (O95398 149-881 isoform O95398-3): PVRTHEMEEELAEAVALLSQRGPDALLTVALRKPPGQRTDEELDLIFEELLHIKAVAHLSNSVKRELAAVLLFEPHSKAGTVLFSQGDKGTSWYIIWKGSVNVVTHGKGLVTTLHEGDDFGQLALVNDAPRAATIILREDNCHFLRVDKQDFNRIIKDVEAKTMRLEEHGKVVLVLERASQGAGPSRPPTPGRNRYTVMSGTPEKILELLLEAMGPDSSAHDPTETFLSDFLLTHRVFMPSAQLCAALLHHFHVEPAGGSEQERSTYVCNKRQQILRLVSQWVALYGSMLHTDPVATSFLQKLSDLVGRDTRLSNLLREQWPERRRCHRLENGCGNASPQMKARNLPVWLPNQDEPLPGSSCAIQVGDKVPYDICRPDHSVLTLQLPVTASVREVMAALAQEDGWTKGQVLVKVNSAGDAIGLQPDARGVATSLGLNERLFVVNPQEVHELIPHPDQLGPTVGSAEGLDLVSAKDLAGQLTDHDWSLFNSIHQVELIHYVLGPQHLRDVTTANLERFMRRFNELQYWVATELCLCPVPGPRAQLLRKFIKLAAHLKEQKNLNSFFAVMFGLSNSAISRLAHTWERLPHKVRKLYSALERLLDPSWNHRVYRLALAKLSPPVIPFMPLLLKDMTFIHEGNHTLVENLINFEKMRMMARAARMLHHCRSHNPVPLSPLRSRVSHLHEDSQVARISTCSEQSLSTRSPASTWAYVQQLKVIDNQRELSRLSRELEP
Description: Protein NCBI Reference Sequences for human Epac1 and Epac2 are NP_006096 and NP_008954, respectively. Recombinant human Epac1 (residues 149-881), deleted of its Dishevelled, Egl-10, and Pleckstrin (DEP) domain, and human Rap1A were produced with GST as a fusion tag (D. Courilleau et al., Identification of a tetrahydroquinoline analog as a pharmacological inhibitor of the cAMP-binding protein Epac, J. Biol. Chem. 287 (2012) 44192-44202).
(§1) In vitro GDP exchange catalyzed by Epac was measured using purified recombinant Epac isoforms and Rap1A loaded with Bodipy-GDP, as described in D. Courilleau, et al (above mentioned). The GEF activity of Epac proteins was initiated by injection of the agonist. Stock solutions of CE3F4 and its analogs (12 mM in 100% DMSO) were kept at −20° C. and were diluted in assay buffer (0.67% final DMSO concentration) just before use for GDP exchange assays. The release of Bodipy-GDP was measured in real time as the decay of fluorescence. A single exponential was fit to the time-course data using the Graphpad Prism program. The initial velocity (Vi) of GDP exchange on Rap1 was calculated as described in D. Courilleau et al.).
(§2) Data are expressed as mean±S.D. Differences in quantitative variables were examined by unpaired one- or two-tailed Student's t test. EC50 and IC50 values were computed according to a four-parameters dose-response model and compared on the basis of the extra sum-of square F test, using Graphpad Prism. Two-tailed Wilcoxon matched-pair signed rank tests were performed using GraphPad Prism.

Epac2(B) = target: T2, Epac2(B) (Homo sapiens, UniProt Q8WZA2); assay: In vitro GEF activity (initial velocity of GDP exchange on Rap1A) of Epac2(B); assay type: biochemical; details: for Antagonism of cAMP-activated Epac2(B) GEF activity: compound 30 μM, 300 μM cAMP, FIG. 6C
T2 construct: Human Epac2(B) (amino acids 283-1011) lacks the first 283 amino acids of Epac2; made in house; host or cells: Escherichia coli Rosetta 2(DE3)
T2 sequence (Q8WZA2 283-1011): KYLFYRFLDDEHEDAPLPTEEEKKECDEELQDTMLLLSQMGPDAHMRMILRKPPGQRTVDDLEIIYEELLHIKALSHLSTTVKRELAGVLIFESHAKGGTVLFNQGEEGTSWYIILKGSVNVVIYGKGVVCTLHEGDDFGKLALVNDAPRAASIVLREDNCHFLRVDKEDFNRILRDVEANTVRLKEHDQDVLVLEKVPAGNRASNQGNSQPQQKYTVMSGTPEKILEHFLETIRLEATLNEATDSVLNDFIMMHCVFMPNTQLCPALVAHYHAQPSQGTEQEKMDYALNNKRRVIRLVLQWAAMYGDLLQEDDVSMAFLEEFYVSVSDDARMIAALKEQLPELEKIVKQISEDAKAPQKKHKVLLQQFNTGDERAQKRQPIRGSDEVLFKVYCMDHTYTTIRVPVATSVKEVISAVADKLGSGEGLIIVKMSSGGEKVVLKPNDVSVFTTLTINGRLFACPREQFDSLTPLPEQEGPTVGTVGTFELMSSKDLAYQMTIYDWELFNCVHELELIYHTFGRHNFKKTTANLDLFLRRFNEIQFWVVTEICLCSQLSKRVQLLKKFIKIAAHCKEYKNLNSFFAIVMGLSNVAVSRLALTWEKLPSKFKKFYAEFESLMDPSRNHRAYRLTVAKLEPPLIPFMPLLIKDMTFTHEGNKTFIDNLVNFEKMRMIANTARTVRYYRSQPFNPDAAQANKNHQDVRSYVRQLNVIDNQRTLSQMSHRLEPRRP
Description: Human Epac2(AB) (amino acids 43-1011) carries both the CNB-A and the CNB-B domains. Human Epac2(B) (amino acids 283-1011) lacks the first 283 amino acids of Epac2. It is therefore deleted of its CNB-A and DEP domains, but retains the CNB-B domain and the full catalytic region. Epac2(AB) was obtained by HindIII/NotI restriction and Epac2(B) was obtained by Ssp1/Not1 restriction of a human Epac2A cDNA (a gift from Ann M Graybiel, Department of Brain and Cognitive Sciences, MIT, Cambridge). Both cDNA fragments were inserted into pET41a (Novagen), expressed in Escherichia coli Rosetta 2(DE3) (Novagen), and the GST-tagged fusion proteins were purified by nickel-nitrilotriacetic acid beads (Qiagen), as described in D. Courilleau, et al., Identification of a tetrahydroquinoline analog as a pharmacological inhibitor of the cAMP-binding protein Epac, J. Biol. Chem. 287 (2012) 44192-44202).
as §1, §2

Epac1 [2] = target: T1, Epac1; assay: Epac1 nucleotide exchange activity, multipoint (time-course) method, bGDP-loaded GST-Rap1A; assay type: biochemical; details: 25 μM compound 009; 2 μM compound 007; FIG. 1
Description: Epac1 nucleotide exchange activity was measured: • in the absence of compound 007, • or in the presence of 2 μM of compound 007, either alone or with 25 μM of compound 009, • or with 20 μM of CE3F4.
Variations of RFU (Relative Fluorescence Units) were studied as a function of time and fitted to single exponentials. Reported values are mean±SEM (n=3). (see Materiel and Methods).
Concerning FIG. 1, a “multipoint” (time-course) method was used. All components except the agonist (007) were mixed in a well and the exchange activity of Epac1 was initiated by injection of the agonist. GST-Rapt was preloaded with a fluorescent derivative of GDP, and the Epac1-catalyzed nucleotide exchange was measured using a large excess of non-fluorescent GDP, by taking advantage of the spectroscopic difference between free and Rap1-bound fluorescently labeled GDP. The principle of the method is similar to that reported in particular by Van den Berghe et al. (1997; Oncogene 15, 845), except that Bodipy FL-labeled GDP (bGDP) was used here, rather than 2′,3′-bis(O)—N-methylanthraniloyl-GDP (mant-GDP). […]

[3] = tested on: Epac1-induced Rap1 activation in HEK293 cells; assay: Epac1-induced Rap1 activation, Rap1-GTP pull-down in HEK293 cells; assay type: cell-based; details: HEK293 cells overexpressing Epac1 vs empty vector; FIG. 2A
Description: HEK293 cells were transfected with either pcDNA3 control vector or Epac1 (see FIG. 2A).
HEK293 cells were transfected with Epac1 and 24 h after transfection, cells were preincubated or not with CE3F4 for 30 min and were then treated or not with Sp-007 (10 μM) for 10 min (see FIG. 2B).
HEK293 cells overexpressing β1AR (Beta-1 adrenergic receptors) and transfected with Epac1 were pretreated or not with CE3F4 and stimulated or not with Iso (10 μM) for 10 min (see FIG. 2C).
Amounts of Rap1-GTP were determined by pull-down assays (see Material and Methods). The bar graph represents the mean±S.E.M. of 5 (FIG. 2A, 2B) or 3 (FIG. 2C) independent experiments. Results are expressed as the percentage of unstimulated control cells.
Ras and Rap1 pull-down experiments were performed using a GST fusion protein containing respectively the Ras binding domain of Raf1-RBD and the Rap1 binding domain of Ral-GDS as previously described (Métrich et al., 2008). Cells were starved for 1 h before stimulation in MEM free with penicillin-streptomycin (1%). After stimulation, cells were lysed in RIPA buffer (50 mM Tris-HCl, pH 7.5; 500 mM NaCl; 20 mM MgCl2; 0.5% deoxycholic acid; 0.1% SDS; 1% Triton X-100; 1 mM PMSF; protease and phosphatase inhibitors) and 500 μg of protein were incubated with either GST-Raf1-RBD (for Ras) or Ral-GDS (for Rap1) coupled to glutathione-Sepharose beads (Amersham Biosciences) for 1h at 4° C. Beads were then washed three times in washing buffer (50 mM Tris-HCl, pH 7.5; 150 mM NaCl, 20 mM MgCl2, 1% Triton X-100; 0.1 mM PMSF; protease and phosphatase inhibitors). Rap1-GTP or Ras samples and corresponding total lysates were separated on SDS-PAGE gels and transferred onto a polyvinylidene difluoride (PVDF) membrane (Amersham Pharmacia Biotech).

Compound	Antagonism of cAMP-activated Epac1 GEF activity (Epac1 [1])	Antagonism of cAMP-activated Epac2(B) GEF activity (Epac2(B))	other results
C[C@@H]1CCc2c(cc(Br)c(F)c2Br)N1C=O [(R)-CE3F4]	–	–	IC50 smaller than that of racemic CE3F4 (Epac1 GEF activity) (Epac1 [1]; 007-activated Epac1): about 2 fold; IC50 smaller than the IC50 values of (S)-CE3F4 and compound f) (Epac1 GEF activity) (Epac1 [1]; 007-activated Epac1): about 10 fold; EC50 (Epac1 [1]): 5.8 µM; Dose-response curve of inhibition of 007-activated Epac1 GEF activity, comparison between compounds (Epac1 [1]): more potent Epac inhibitor; IC50 (Epac1 [1]; Epac1 activated by 300 μM cAMP): 4.2 µM; IC50 (Epac2(B); Epac2(B) activated by 300 μM cAMP): 44 µM
Nc1nc2c(nc(Sc3ccc(Cl)cc3)n2[C@@H]2O[C@@H]3COP(=O)(O)O[C@H]3[C@H]2O)c(=O)[nH]1 [Compound 009, 8-(4-chlorophenylthio)-guanosine-3′,5′-cyclic monophosphate, reference compound]	–	–	Inhibition of the exchange reaction induced by Epac1 plus 007 (Epac1 [2]): inhibitory effect
CO[C@H]1C2OP(O)(=S)OC[C@H]2O[C@H]1n1c(Sc2ccc(Cl)cc2)nc2c(N)ncnc21 (stereo partly shown) [Sp-007, Sp-8-pCPT-2′-O-Me-cAMPS, reference compound]	–	–	Rap1 activation (Rap1-GTP/Total Rap1) by agonist [3]: robust activation of Rap1
CC(=O)N1c2cc(Br)c(F)c(Br)c2CCC1C (stereo not shown) [g)]	antagonistic properties	–	–
CC1CCc2c(ccc(F)c2C=O)N1C=O (stereo not shown) [d), reference compound]	no significant inhibitory activity	no significant inhibitory activity	–
CC1CCc2c(ccc(F)c2Br)N1C=O (stereo not shown) [a)]	antagonistic properties	antagonistic properties	–
O=CN1CCCc2c1cc(Br)c(F)c2Br [Compound f)]	antagonistic properties	antagonistic properties	EC50 (Epac1 [1]): 50 µM; Dose-response curve of inhibition of 007-activated Epac1 GEF activity, comparison between compounds (Epac1 [1]): not significantly different
CC1CCc2cc(F)c(Br)cc2N1C=O (stereo not shown) [b), reference compound]	no significant inhibitory activity	no significant inhibitory activity	–
CC1CCc2c(Br)cc(Br)cc2N1C=O (stereo not shown) [e)]	antagonistic properties	antagonistic properties	–
CC1CCc2c(cc(Br)c(F)c2Br)N1 (stereo not shown) [h)]	antagonistic properties	–	–
